Measurements taken from patent publication US7799758B2, “Peptides and peptide derivatives as well as pharmaceutical compositions containing the same” (priority 2006, dated 2010).
No end group written: not given here.

Test system: mouse-adapted Dengue virus (DEN-2, strain P23085)
Assay: model of Dengue virus infection in mice
Type: in vivo
Details: BALB/c mice infected s.c. with DEN-2 at 1-2 LD50, 4.8 mg/kg/day i.m. once a day for 5 days from day 3, read at day 10, p < 0.05
Description: A further possibility for establishing the biological effect in vivo is the reduction or complete suppression of mortality because of an infection with haemolytic viruses or bacteria. For this purpose, mice are, as described in Example 8, for instance infected with a dose of Dengue viruses, wherein 50% of the animals die within a period of 5-20 days after infection. The inventive compounds bring about a reduction of this mortality at a dose ranging from 0.001 to 500 mg/kg body weight, preferably at a dose ranging from […] body weight.
The biological effect of the compound of Example 3 was established in a model of Dengue virus infection in mice. 5-week-old male BALB/c mice were divided into 2 groups. All animals were infected subcutaneously with a mouse-adapted Dengue virus (DEN-2, strain P23085 at a dose of 1-2 LD50. 15 mice received 0.1 ml of 0.8% saline as intramuscular injection (control). The treated animals received 4.8 mg/kg/day of the agent of Example 3 as an intramuscular injection (diluted in 0.1 ml of 0.8% saline) once a day for 5 days, starting on day 3 after the virus infection.
At the end of the treatment period (day 10) the survival rates were compared.

In the case of “Gly-His-Arg-Pro-Leu-Asp-Lys-Lys-Arg-Glu-Glu-Ala-Pro-Ser-Leu-Arg-Pro-Ala-Pro-Pro-Pro-Ile-Ser-Gly-Gly-Gly-Tyr-Arg-Cys-(S-succinimido-PEG20K)-amide (GHRPLDKKREEAPSLRPAPPPISGGGYRC(succinimido‑PEG20K)-NH2) [Example 3]”, the “Mortality Percentage” value is reported as 0% and the Mortality (dead/total animals) is reported as 0/10.
